The term Ki denotes a measure of affinity in units of concentration, obtained from inhibition or displacement.

Test [1] addresses T1, human GR (glucocorticoid receptor) (Homo sapiens, UniProt P04150).
T1 construct: expressed in transfected cells; host or cells: HEK293
T1 sequence (P04150 1-777): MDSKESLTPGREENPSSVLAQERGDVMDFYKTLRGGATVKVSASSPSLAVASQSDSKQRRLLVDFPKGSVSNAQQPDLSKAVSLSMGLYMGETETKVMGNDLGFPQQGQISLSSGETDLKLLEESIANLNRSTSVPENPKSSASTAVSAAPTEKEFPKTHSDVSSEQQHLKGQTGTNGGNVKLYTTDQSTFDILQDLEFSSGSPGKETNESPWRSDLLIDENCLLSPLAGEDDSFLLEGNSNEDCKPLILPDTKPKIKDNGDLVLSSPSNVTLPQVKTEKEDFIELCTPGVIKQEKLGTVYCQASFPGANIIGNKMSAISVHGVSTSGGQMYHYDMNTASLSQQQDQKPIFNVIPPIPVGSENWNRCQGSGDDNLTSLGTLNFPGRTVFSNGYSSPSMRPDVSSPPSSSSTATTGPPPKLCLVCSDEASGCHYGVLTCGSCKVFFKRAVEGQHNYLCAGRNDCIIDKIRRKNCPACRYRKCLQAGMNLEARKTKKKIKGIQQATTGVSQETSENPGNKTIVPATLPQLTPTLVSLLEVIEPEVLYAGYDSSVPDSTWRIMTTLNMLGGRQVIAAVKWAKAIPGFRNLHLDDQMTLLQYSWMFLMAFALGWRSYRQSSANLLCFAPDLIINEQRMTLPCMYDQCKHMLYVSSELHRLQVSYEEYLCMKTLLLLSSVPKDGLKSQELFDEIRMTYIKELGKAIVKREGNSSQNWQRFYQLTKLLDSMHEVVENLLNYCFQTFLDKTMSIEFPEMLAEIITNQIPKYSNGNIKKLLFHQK
The experiment in a line: GR competition binding assay (HEK293 cell lysate). The following applies: 0.3 nM 3H-dexamethasone, 293-GR lysate. The protocol: (§1) Cell lysates from HEK293 cells overexpressing human GR (glucocorticoid receptor), AR (androgen receptor), MR (mineralocorticoid receptor) or PR (progesterone receptor) are used for competition binding assays to determine Ki values for compounds of interest. Briefly, competition binding assays are run in a buffer containing 20 mM HEPES, pH 7.6, 0.2 mM EDTA, 75 mM NaCl, 1.5 mM MgCl2, 20% glycerol, 20 mM sodium molybdate, 0.2 mM DTT, 20 ug/ml aprotinin, and 20 ug/ml leupeptin, using either 0.3 nM ^3H-dexamethasone for GR binding, 0.36 nM ^3H-methyltrienolone for AR binding, 0.25 nM ^3H-aldosterone for MR binding, or 0.29 nM ^3H-methyltrienolone for PR binding, and either 20 ug 293-GR lysate, 22 ug 293-AR lysate, 20 ug 293-MR lysate or 40 ug 293-PR lysate per well. Competing compounds are added at various concentrations in half-log increments. Non-specific binding is determined in the presence of 500 nM dexamethasone for GR binding, 500 nM aldosterone for MR binding, or 500 nM methyltrienolone for AR and PR binding. The binding reaction (140 μl) is incubated overnight at 4° C., then 70 μl of cold charcoal-dextran buffer (containing per 50 ml of assay buffer, 0.75 g of charcoal and 0.25 g of dextran) is added to each reaction. Plates are mixed 8 minutes on an orbital shaker at 4° C. Plates are then centrifuged at 3,000 rpm at 4° C. for 10 minutes. An aliquot of 120 μl of the mixture is transferred to another 96-well plate and 175 μl of Wallac Optiphase “Hisafe 3” scintillation fluid is added to each well. Plates are sealed and shaken vigorously on an orbital shaker. After an incubation of 2 hrs, plates are read in a Wallac Microbeta counter. […] The Kd for ^3H-dexamethasone for GR binding, ^3H-methyltrienolone for AR binding, ^3H-aldosterone for MR binding, or ^3H-methyltrienolone for PR binding, is determined by saturation binding. The IC50 values for compounds are converted to Ki using Cheng-Prusoff equation and the Kd determined by saturation binding assay.

The target in test [2] is T2, human AR (androgen receptor) (Homo sapiens, UniProt P10275).
T2 construct: expressed in transfected cells; host or cells: HEK293
T2 sequence (P10275 1-920): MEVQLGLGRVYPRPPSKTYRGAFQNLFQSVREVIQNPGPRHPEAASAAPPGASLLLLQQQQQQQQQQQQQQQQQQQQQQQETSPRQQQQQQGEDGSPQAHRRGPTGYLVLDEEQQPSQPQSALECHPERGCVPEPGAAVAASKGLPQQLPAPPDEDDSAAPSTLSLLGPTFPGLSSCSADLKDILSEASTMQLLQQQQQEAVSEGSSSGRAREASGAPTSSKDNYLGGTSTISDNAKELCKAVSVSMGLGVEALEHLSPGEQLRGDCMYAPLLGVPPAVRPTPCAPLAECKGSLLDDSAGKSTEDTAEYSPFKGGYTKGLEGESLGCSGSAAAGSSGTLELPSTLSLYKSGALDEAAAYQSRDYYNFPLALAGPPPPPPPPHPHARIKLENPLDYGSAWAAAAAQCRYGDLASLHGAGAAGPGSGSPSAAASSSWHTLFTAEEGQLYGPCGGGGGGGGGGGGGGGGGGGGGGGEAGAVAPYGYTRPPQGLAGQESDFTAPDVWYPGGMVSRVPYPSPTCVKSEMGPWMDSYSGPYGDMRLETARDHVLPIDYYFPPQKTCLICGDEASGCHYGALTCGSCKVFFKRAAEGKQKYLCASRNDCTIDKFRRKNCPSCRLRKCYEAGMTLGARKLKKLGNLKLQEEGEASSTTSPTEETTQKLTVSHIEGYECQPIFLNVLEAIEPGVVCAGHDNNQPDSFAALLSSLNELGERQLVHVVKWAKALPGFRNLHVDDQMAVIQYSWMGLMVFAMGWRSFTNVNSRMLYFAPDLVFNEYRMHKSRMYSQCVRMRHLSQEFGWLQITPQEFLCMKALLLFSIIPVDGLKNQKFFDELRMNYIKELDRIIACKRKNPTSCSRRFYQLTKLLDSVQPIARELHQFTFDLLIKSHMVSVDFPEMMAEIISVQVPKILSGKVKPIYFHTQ
Kind of test: AR competition binding assay (HEK293 cell lysate). Conditions: 0.36 nM 3H-methyltrienolone, 293-AR lysate. Here is the method: as §1

Where only a bound is given, the exact number is not on record here.

`Cc1ccc(-c2cn(C(C)C)c3cc(NS(C)(=O)=O)ccc23)cc1F` [Example 84, N-[3-(3-Fluoro-4-methyl-phenyl)-1-isopropyl-1H-indol-6-yl]-methanesulfonamide]: the Ki in test [1] is above 1000 nM; in test [2] it was 500 to 1000 nM.
Taken in the same sequence, the figures for `CC(C)n1cc(-c2ccccc2)c2ccc(NS(C)(=O)=O)cc21` [Example 85, N-(1-Isopropyl-3-phenyl-1H-indol-6-yl)-methanesulfonamide] were above 1000 nM and 100 to 500 nM.
On the same counts, the results for `COc1ccc(-c2cn(C(C)C)c3cc(NS(C)(=O)=O)ccc23)cc1C` [Example 86, N-[1-Isopropyl-3-(4-methoxy-3-methyl-phenyl)-1H-indol-6-yl]-methanesulfonamide] are above 1000 nM and above 1000 nM.
Take `CC(C)n1cc(-c2ccc(C(N)=O)cc2)c2ccc(NS(C)(=O)=O)cc21` [Example 87, 4-(1-Isopropyl-6-methanesulfonylamino-1H-indol-3-yl)-benzamide]: the inhibition constant Ki in test [1] and in test [2] was above 1000 nM each time.
On to `COc1ccc(-c2cn(C(C)C)c3cc(NS(C)(=O)=O)ccc23)cn1` [Example 88, N-[1-Isopropyl-3-(6-methoxy-pyridin-3-yl)-1H-indol-6-yl]-methanesulfonamide], for which the Ki in test [1] and in test [2] was above 1000 nM throughout.
Regarding `CC(C)n1cc(-c2ccc(O)cc2)c2ccc(NS(C)(=O)=O)cc21` [Example 93, N-[3-(4-Hydroxy-phenyl)-1-isopropyl-1H-indol-6-yl]-methanesulfonamide], the Ki in test [1] was above 1000 nM; in test [2], 100 to 500 nM.
On the same counts, the results for `CC(C)n1cc(-c2ccc(C=NO)cc2)c2ccc(NS(C)(=O)=O)cc21` [Example 94, N-{3-[4-(Hydroxyimino-methyl)-phenyl]-1-isopropyl-1H-indol-6-yl}-methanesulfonamide] are above 1000 nM and 100 to 500 nM.
On the same counts, the results for `CC(C)n1cc(-c2ccc3sccc3c2)c2ccc(NS(C)(=O)=O)cc21` [Example 95, N-(3-Benzo[b]thiophen-5-yl-1-isopropyl-1H-indol-6-yl)-methanesulfonamide] are above 1000 nM and 500 to 1000 nM.
On the same counts, the results for `CC(C)n1cc(-c2ccc3oc(=O)ccc3c2)c2ccc(NS(C)(=O)=O)cc21` [Example 96, N-[1-Isopropyl-3-(2-oxo-2H-chromen-6-yl)-1H-indol-6-yl]-methanesulfonamide] are above 1000 nM and above 1000 nM.
On to `CC(C)n1cc(-c2ccc3c(c2)COC3=O)c2ccc(NS(C)(=O)=O)cc21` [Example 97, N-[1-Isopropyl-3-(1-oxo-1,3-dihydro-isobenzofuran-5-yl)-1H-indol-6-yl]-methanesulfonamide], for which the Ki in test [1] and in test [2] was above 1000 nM each time.
As for `CC(C)n1cc(-c2ccc(C#N)cc2)c2ccc(NS(=O)(=O)C(F)(F)F)cc21` [Example 98, N-[3-(4-Cyano-phenyl)-1-isopropyl-1H-indol-6-yl]-C,C,C-trifluoro-methanesulfonamide], the Ki in test [1] and in test [2] was above 1000 nM throughout.
`CC(C)n1cc(-c2ccc(C#N)cc2)c2ccc(NS(=O)(=O)N3CCOCC3)cc21` [Example 100, Morpholine-4-sulfonic acid [3-(4-cyano-phenyl)-1-isopropyl-1H-indol-6-yl]-amide]: the inhibition constant (Ki) in test [1] and in test [2] was above 1000 nM in each case.
As to `CC(C)n1cc(-c2ccc3c(cnn3C)c2)c2ccc(NS(C)(=O)=O)cc21` [Example 107, N-[1-Isopropyl-3-(1-methyl-1H-indazol-5-yl)-1H-indol-6-yl]-methanesulfonamide], the inhibitory constant (Ki) in test [1] and in test [2] was above 1000 nM throughout.

The record behind these values is patent US7932284B2, “Indole sulfonamide modulators of progesterone receptors” (Eli Lilly and Company, priority 2006, dated 2011).
